# Patent US11319347B2, “Peptide compound and method for producing same, composition for screening use, and method for selecting peptide compound” (FUJIFILM Corporation, priority 2017, dated 2022)
# Starred links: 1 amine or outer side, 2 acyl side, 3 side chain; linkers in the order of their positions; H or OH if unused. Positions of bridges follow the written chain, without caps; N, C: chain ends. Non-standard residues stand in square brackets, D forms with d. Residues, ends and D or L forms follow the SMILES beside them. Phe(3-(4R-CO-2-thiazolinyl)) = O=C([C@H](Cc1cccc(C2=N[C@H](C(=O)[*:3])CS2)c1)N[*:1])[*:2]; dCha = N[C@H](CC1CCCCC1)C(=O)O
# Legend:
# [1] = Membrane permeability of synthesized cyclic peptides by PAMPA (Measurement Method A: 1 μmol/L; Method B: 10 μmol/L); assay type: in vitro ADME; settings: Measurement method A, 25° C., 4 hours
# Experimental: Evaluation of membrane permeability of synthesized cyclic peptide by PAMPA method In order to compare and examine the membrane permeability of the synthesized cyclic peptide, parallel artificial membrane permeability assay (PAMPA) was carried out.
# An artificial phospholipid membrane was produced by adding 5 μL of a phospholipid organic solvent solution consisting of L-α-phosphatidylcholine (Avanti Polar Lipids, Inc., Cat. 840051P, 1.67%), 1,2-dioleoyl-sn-glycero-3-phospho-L-serine (Avanti Polar Lipids, Inc., Cat. 840035P, 0.33%), and n-dodecane special grade (Wako Pure Chemical Industries, Ltd., 047-21612)/1-octanol reagent special grade (Kanto Chemical Co., Inc., Cat. 31013-08)=10:1 to Filter Plate (Merck Millipore Corporation, Cat. MAIPN4550).
# 475 μL of 50 mmol/L potassium phosphate buffer (KPB, pH 7.4 or pH 6.5) was added to 25 μL of a DMSO solution containing the compound at a concentration of 20 μmol/L, so that the compound was diluted to a final concentration of 1 μmol/L. 300 μL of the compound solution was added to the lower side (donor side) of PAMPA 96-well plate (Filter Plate (Merck Millipore Corporation, Cat. MAIPN4550)) with an artificial phospholipid membrane being interposed therebetween. 200 μL of 5% DMSO KPB (pH 7.4) was added to the upper side (acceptor side) with the artificial phospholipid membrane being interposed therebetween. A permeation test through an artificial phospholipid membrane was carried out at 25° C. for 4 hours. The compound concentration in the solution in the donor plate and the acceptor plate was measured by LC/MS/MS, and the membrane permeation rate (Pe) of the compound was calculated from the following formula, assuming that C0 is an initial compound concentration in donor solution, t is a test time, A is a membrane filter area=0.3 cm^2, VD is a donor solution amount=300 μL, VA is an acceptor solution amount=200 μL, and CD(t) is a compound concentration in donor solution at time t, CA(t) is a compound concentration in acceptor solution at time t, and Cequilibrium=[CD(t)*VD+CA(t)*VA]/(VD+VA).
# 475 μL of 50 mmol/L potassium phosphate buffer (KPB, pH 7.4 or pH 6.5) was added to 25 μL of a DMSO solution containing the compound at a concentration of […], so that the compound was diluted to a final concentration of 10 μmol/L. The compound solution was added 300 μL each to the lower side (donor side) of an artificial phospholipid membrane of PAMPA 96-well plate (Filter Plate (Merck Millipore Corporation, Cat. MAIPN4550)). 200 μL of 5% DMSO KPB (pH 7.4) was added to the upper side (acceptor side) with the artificial phospholipid membrane being interposed therebetween. A permeation test through an artificial phospholipid membrane was carried out at 25° C. for 4 hours. The compound concentration in the solution in the donor plate and the acceptor plate was measured by LC/MS/MS, and the membrane permeation rate (Pe) of the compound was calculated from the following formula, assuming that Co is an initial compound concentration in donor solution, t is a test time, A is a membrane filter area=0.3 cm^2, VD is a donor solution amount=300 μL, VA is an acceptor solution amount=200 μL, and CD(t) is a compound concentration in donor solution at time t, CA(t) is a compound concentration in acceptor solution at time t, and Cequilibrium=[CD(t)*VD+CA(t)*VA]/(VD+VA).
# The membrane permeability (Pe(10^−6 cm/s)) obtained by this method is described in the following table.
# (§1) Evaluation standards are as follows.
# [2] = Metabolic stability of cyclic peptides in human liver microsomes (HLM residual rate); assay type: in vitro ADME; settings: 1 μmol/L, human liver microsomes 0.5 mg protein/mL, 37° C., 20 minutes, NADPH and UDPGA
# Experimental: Test of metabolic stability of cyclic peptide in human liver microsome
# An experiment using human liver microsomes (HLMs) was carried out in order to compare and examine the metabolic stability of the synthesized cyclic peptides.
# The compound with a final concentration of 1 μmol/L was incubated in human liver microsomes (BD Cat #452117) prepared to a final concentration of 0.5 mg protein/mL using 100 mmol/L phosphate buffer (pH 7.4) at 37° C. for 20 minutes in the presence of reduced nicotinamide adenine dinucleotide phosphate (NADPH) and uridine 5′-diphosphate-α-D-glucuronic acid (UDPGA). Deproteinization treatment with acetonitrile was carried out, the amount of unaltered substance remaining was quantified using LC/MS/MS, and the residual rate (%) in 20 minutes was calculated. The HLM residual rate (%) obtained by this method is described in the following table.
# as §1
SMILES,Pe(10^−6 cm/sec) [1],HLM residual rate [2]
N=C(N)NCCC[C@@H]1NC(=O)[C@H](Cc2c[nH]c3ccccc23)NC(=O)[C@@H](CC2CCCCC2)NC(=O)[C@@H]2CCCN2C(=O)[C@@H]2CSC(=N2)c2cccnc2C[C@@H](C(N)=O)NC1=O [2-6],++ (0.2<Pe (10^−6 cm/s)≤0.5),+++ (60%<HLM residual rate (%))
N=C(N)NCCC[C@@H]1NC(=O)[C@H](Cc2c[nH]c3ccccc23)NC(=O)[C@@H](CC2CCCCC2)NC(=O)[C@@H]2CCCN2C(=O)[C@@H]2CSC(=N2)c2ccnc(c2)C[C@@H](C(N)=O)NC1=O [2-10],+++ (0.5<Pe (10^−6 cm/s)),+++ (60%<HLM residual rate (%))
N=C(N)NCCC[C@@H]1NC(=O)[C@H](Cc2c[nH]c3ccccc23)NC(=O)[C@@H](CC2CCCCC2)NC(=O)[C@@H]2CCCN2C(=O)[C@@H]2CSC(=N2)c2ccncc2C[C@@H](C(N)=O)NC1=O [2-5],++ (0.2<Pe (10^−6 cm/s)≤0.5),++ (40%<HLM residual rate (%)≤60%)
N=C(N)NCCC[C@@H]1NC(=O)[C@H](Cc2c[nH]c3ccccc23)NC(=O)[C@@H](CC2CCCCC2)NC(=O)[C@@H]2CCCN2C(=O)[C@@H]2CSC(=N2)c2cc3c(cccc3s2)C[C@@H](C(N)=O)NC1=O [2-1],+++ (0.5<Pe (10^−6 cm/s)),+++ (60%<HLM residual rate (%))
N=C(N)NCCC[C@@H]1NC(=O)[C@H](Cc2c[nH]c3ccccc23)NC(=O)[C@@H](CC2CCCCC2)NC(=O)[C@@H]2CCCN2C(=O)[C@@H]2CSC(=N2)c2cncc(c2)C[C@@H](C(N)=O)NC1=O [2-7],+++ (0.5<Pe (10^−6 cm/s)),+++ (60%<HLM residual rate (%))
COc1cc2cnc1C1=N[C@@H](CS1)C(=O)N1CCC[C@H]1C(=O)N[C@H](CC1CCCCC1)C(=O)N[C@@H](Cc1c[nH]c3ccccc13)C(=O)N[C@@H](CCCNC(=N)N)C(=O)N[C@H](C(N)=O)C2 [2-22],++ (0.2<Pe (10^−6 cm/s)≤0.5),+++ (60%<HLM residual rate (%))
N=C(N)NCCC[C@@H]1NC(=O)[C@H](Cc2c[nH]c3ccccc23)NC(=O)[C@@H](CC2CCCCC2)NC(=O)[C@@H]2CCCN2C(=O)[C@@H]2CSC(=N2)c2csc(n2)C[C@@H](C(N)=O)NC1=O [2-19],+++ (0.5<Pe (10^−6 cm/s)),+++ (60%<HLM residual rate (%))
N=C(N)NCCC[C@@H]1NC(=O)[C@H](Cc2c[nH]c3ccccc23)NC(=O)[C@@H](CC2CCCCC2)NC(=O)[C@@H]2CCCN2C(=O)[C@@H]2CSC(=N2)c2ccc(nn2)C[C@@H](C(N)=O)NC1=O [2-15],,++ (40%<HLM residual rate (%)≤60%)
N=C(N)NCCC[C@@H]1NC(=O)[C@H](Cc2c[nH]c3ccccc23)NC(=O)[C@@H](CC2CCCCC2)NC(=O)[C@@H]2CCCN2C(=O)[C@@H]2CSC(=N2)c2cc(cs2)C[C@@H](C(N)=O)NC1=O [2-16],+++ (0.5<Pe (10^−6 cm/s)),++ (40%<HLM residual rate (%)≤60%)
CC1(C)SC2=N[C@@H]1C(=O)N1CCC[C@H]1C(=O)N[C@H](CC1CCCCC1)C(=O)N[C@@H](Cc1c[nH]c3ccccc13)C(=O)N[C@@H](CCCNC(=N)N)C(=O)N[C@H](C(N)=O)Cc1cccc2n1 [2-21],+++ (0.5<Pe (10^−6 cm/s)),+++ (60%<HLM residual rate (%))
N=C(N)NCCC[C@@H]1NC(=O)[C@H](Cc2c[nH]c3ccccc23)NC(=O)[C@@H](CC2CCCCC2)NC(=O)[C@@H]2CCCN2C(=O)[C@@H]2CSC(=N2)c2ccc(nc2)C[C@@H](C(N)=O)NC1=O [2-11],+++ (0.5<Pe (10^−6 cm/s)),+++ (60%<HLM residual rate (%))
N=C(N)NCCC[C@@H]1NC(=O)[C@H](Cc2c[nH]c3ccccc23)NC(=O)[C@@H](CC2CCCCC2)NC(=O)[C@@H]2CCCN2C(=O)[C@@H]2CSC(=N2)c2n[nH]cc2C[C@@H](C(N)=O)NC1=O [2-20],,++ (40%<HLM residual rate (%)≤60%)

# Now from value to compound:
Pe(10^−6 cm/sec) [1],HLM residual rate [2],SMILES
+++ (0.5<Pe (10^−6 cm/s)),+++ (60%<HLM residual rate (%)),N=C(N)NCCC[C@@H]1NC(=O)[C@H](Cc2c[nH]c3ccccc23)NC(=O)[C@@H](CC2CCCCC2)NC(=O)[C@@H]2CCCN2C(=O)[C@@H]2CSC(=N2)c2cccc(c2)C[C@@H](C(N)=O)NC1=O [3-4] (P[dCha]WR[Phe(3-(4R-CO-2-thiazolinyl))]-NH2; lactam N-5)
+ (0.01<Pe (10^−6 cm/s)≤0.2),+ (HLM residual rate (%)≤40%),CC(=O)N[C@H]1CSSC[C@@H](C(N)=O)NC(=O)[C@H](CCCNC(=N)N)NC(=O)[C@H](Cc2c[nH]c3ccccc23)NC(=O)[C@@H](CC2CCCCC2)NC(=O)[C@@H]2CCCN2C1=O [9-1] (Ac-CP[dCha]WRC-NH2; disulfide 1-6)
+++ (0.5<Pe (10^−6 cm/s)),+++ (60%<HLM residual rate (%)),N=C(N)NCCCC1NC(=O)[C@H](Cc2c[nH]c3ccccc23)NC(=O)[C@@H](CC2CCCCC2)NC(=O)[C@@H]2CCCN2C(=O)c2csc(n2)-c2cccc(c2)C[C@@H](C(N)=O)NC1=O (stereo partly drawn) [6-1]
,+++ (60%<HLM residual rate (%)),N=C(N)NCCC[C@@H]1NC(=O)[C@H](Cc2c[nH]c3ccccc23)NC(=O)[C@@H](CC2CCCCC2)NC(=O)[C@@H]2CCCN2C(=O)[C@@H]2CSC(=N2)c2ncccc2C[C@@H](C(N)=O)NC1=O [3-3]
+++ (0.5<Pe (10^−6 cm/s)),+++ (60%<HLM residual rate (%)),N=C(N)NCCC[C@@H]1NC(=O)[C@H](Cc2c[nH]c3ccccc23)NC(=O)[C@@H](CC2CCCCC2)NC(=O)[C@@H]2CCCN2C(=O)[C@@H]2CSC(=N2)c2cc3cc(ccc3[nH]2)C[C@@H](C(N)=O)NC1=O [3-2]
+ (0.01<Pe (10^−6 cm/s)≤0.2),+ (HLM residual rate (%)≤40%),C[C@@H]1NC(=O)CSC[C@@H](C(N)=O)NC(=O)[C@H](CCCNC(=N)N)NC(=O)[C@H](Cc2c[nH]c3ccccc23)NC(=O)[C@@H](CC2CCCCC2)NC(=O)[C@@H]2CCCN2C1=O [7-1] ({CH2CO}-AP[dCha]WRC-NH2; thioether N-6)
